Measured values reported in PMC12635268, “Novel antimicrobial peptides and peptide-microbiome crosstalk in Appalachian salamander skin” (NPJ Biofilms and Microbiomes, 2025).
Values after ≈ are worked out from the molar mass of the structure shown. Ends that are not written are not given here. Peptide text beside a SMILES is read from it.

Legend:
[1] = tested on: K. pneumoniae 4640; details: for Bacterial MIC: 4640, 20 h
[2] = tested on: P. aeruginosa PA01; experiment: microbe, parasite or virus in culture; assay type: cell-based; details: for Bacterial MIC: P. aeruginosa 15692 (PAO1), Week 2 (12/14/2023)
Method: (§1) Antimicrobial susceptibility testing of the 20 synthesized peptides against 17 bacterial strains of clinical relevance in the ESKAPEE panel was conducted using minimum inhibitory concentration (MIC) assays following the broth microdilution method outlined by Parker et al.[91]. The ESKAPEE panel is comprised of fourteen American Type Culture Collection (ATCC) strains and three Multidrug Resistant Organism Repository and Surveillance Network (MRSN) bacterial strains. These strains represent at least one drug-susceptible strain and one drug-resistant strain for each bacterium to assess drug efficacy across various resistance mechanisms. This panel is comprised of the following bacterial species and strains: E. faecium (ATCC 19434, ATCC 49224), S. aureus (ATCC 25923, ATCC 43300), K. pneumoniae (ATCC 700603, ATCC 13883, MRSN 1320), A. baumannii (ATCC 17978, ATCC 19606, MRSN 959), P. aeruginosa (ATCC 15692, ATCC 27853, MRSN 5519), E. cloacae (ATCC 13047, ATCC 35549), and E. coli (ATCC 35218, ATCC 43888). Bacteria were grown in cation-adjusted Mueller-Hinton broth (CAMHB) to achieve a final inoculum of 1 × 10⁵ CFU/mL. CAMHB is selected for its batch-to-batch reproducibility, low levels of antimicrobial inhibitors, and ability to support the growth of most bacterial pathogens.
(§2) Briefly, lyophilized peptides were dissolved in 0.2% TFA + 0.4% BSA in water to 2.56 mg/mL, ultrasonicated for 20 min, diluted 10-fold into CAMHB, and then serially diluted 2-fold in 0.02% TFA + 0.04% BSA in CAMHB and assayed at a concentration of 0.25 to 128 μg/mL. Assays were set up using the Tecan Freedom EVO liquid handling robot and software (Tecan, Switzerland) with 50 μL of bacterial inoculum and 50 μL of peptide transferred into round-bottom 96-well microtiter plates. Each plate assay was performed in duplicate and incubated at 37 °C for 20 h without agitation. Bacterial growth was assessed using the BIOMIC V3 Image Analysis system (Giles Scientific, USA) and the MIC values were determined visually according to the Clinical and Laboratory Standards Institute (CLSI) guidelines.

[3] = parameters: method as in Biomatik (vendor); details: 1.0 mg peptide in 1.0 ml solvent; peptides synthesized by Biomatik; ref Biomatik (vendor); cited from earlier work
[4] = tested on: A. baumannii ATCC 19606; experiment: microbe, parasite or virus in culture; details: for Bacterial MIC: ATCC 19606, 20 h
Method: as §1, §2

[5] = tested on: K. pneumoniae ATCC 700603; experiment: microbe, parasite or virus in culture; details: K. pneumoniae 700603; for Bacterial MIC: Week 2 (12/14/2023)
Method: as §1, §2

[6] = tested on: E. faecium ATCC 19434; experiment: microbe, parasite or virus in culture; details: for Bacterial MIC: ATCC 19434, 20 h
Method: as §1, §2

[7] = tested on: E. cloacae ATCC 35549; experiment: microbe, parasite or virus in culture; details: for Bacterial MIC: ATCC 35549, 20 h
Method: as §1, §2

[8] = tested on: P. aeruginosa MRSN 5519; experiment: microbe, parasite or virus in culture; details: for Bacterial MIC: MRSN 5519, 20 h
Method: as §1, §2

[9] = tested on: K. pneumoniae ATCC 13883; experiment: microbe, parasite or virus in culture; details: for Bacterial MIC: ATCC 13883, 20 h
Method: as §1, §2

[10] = tested on: P. aeruginosa ATCC 27853; experiment: microbe, parasite or virus in culture; details: for Bacterial MIC: ATCC 27853, 20 h
Method: as §1, §2

[11] = tested on: A. baumannii ATCC 17978; experiment: microbe, parasite or virus in culture; details: for Bacterial MIC: ATCC 17978, 20 h
Method: as §1, §2

[12] = tested on: S. aureus ATCC 43300; experiment: microbe, parasite or virus in culture; details: S. aureus 43300; for Bacterial MIC: Week 2 (12/14/2023)
Method: as §1, §2

[13] = tested on: E. coli ATCC 43888; experiment: microbe, parasite or virus in culture; details: ATCC 43888, 20 h
Method: as §1, §2

[14] = tested on: E. coli ATCC 35218; experiment: microbe, parasite or virus in culture
Method: as §1, §2

[15] = tested on: E. cloacae ATCC 13047; experiment: microbe, parasite or virus in culture; details: for Bacterial MIC: ATCC 13047, 20 h
Method: as §1, §2

[16] = tested on: S. aureus ATCC 25923; experiment: microbe, parasite or virus in culture; details: for Bacterial MIC: ATCC 25923, 20 h
Method: as §1, §2

[17] = tested on: E. faecium ATCC 49224; experiment: microbe, parasite or virus in culture; details: for Bacterial MIC: ATCC 49224, 20 h
Method: as §1, §2

[18] = tested on: A. baumannii 5075; details: for Bacterial MIC: Week 2 (12/14/2023)
[19] = tested on: P. aeruginosa PA01 (Si); experiment: microbe, parasite or virus in culture; assay type: cell-based; details: Si
Source text: Supplement 41522_2025_837_MOESM13_ESM.xlsx, sheet "Table_S13_ESKAPEE-MIC" | column: Bacterial MIC (µg/mL)

[20] = E. coli 35218, Week 2 (12/14/2023)
[21] = CAMHB, 1 × 10⁵ CFU/mL, 0.25 to 128 μg/mL, 37 °C 20 h, duplicate, read visually (CLSI)

NANGASNANGASYANGASN [TrPr-Pc34]
Bacterial MIC [1]: >128.000 µg/mL
Bacterial MIC [2]: >128.000 µg/mL
Suggest solvent (solubility) [3]: 1.0mg peptide soluble in 1.0ml H2O
Bacterial MIC [4]: >128.000 µg/mL
Bacterial MIC [5]: >128.000 µg/mL
Bacterial MIC [6]: >128.000 µg/mL
Bacterial MIC [7]: >128.000 µg/mL
Bacterial MIC [8]: >128.000 µg/mL
Bacterial MIC [9]: >128.000 µg/mL
Bacterial MIC [10]: >128.000 µg/mL
Bacterial MIC [11]: >128.000 µg/mL
Bacterial MIC [12]: >128.000 µg/mL
Bacterial MIC [13]: >128.000 µg/mL
Bacterial MIC [14, 20]: >128.000 µg/mL
Bacterial MIC [15]: >128.000 µg/mL
Bacterial MIC [16]: >128.000 µg/mL
Bacterial MIC [17]: >128.000 µg/mL
Bacterial MIC [18]: >128.000 µg/mL
Bacterial MIC [19]: >128.000 µg/mL

CC[C@H](C)[C@H](NC(=O)[C@H](CO)NC(=O)[C@H](CO)NC(=O)[C@H](Cc1ccccc1)NC(=O)[C@H](CS)NC(=O)CNC(=O)CNC(=O)[C@H](CCCNC(=N)N)NC(=O)[C@H](CCCNC(=N)N)NC(=O)[C@H](Cc1ccc(O)cc1)NC(=O)[C@H](CS)NC(=O)[C@H](CC(N)=O)NC(=O)[C@H](Cc1c[nH]c2ccccc12)NC(=O)[C@@H]1CCCN1C(=O)[C@H](CCCNC(=N)N)NC(=O)[C@H](C)NC(=O)[C@H](CCCNC(=N)N)NC(=O)[C@H](CCCNC(=N)N)NC(=O)[C@@H](NC(=O)[C@H](CCCNC(=N)N)NC(=O)[C@@H](NC(=O)[C@H](CCCNC(=N)N)NC(=O)[C@H](CCCCN)NC(=O)[C@@H](N)CC(C)C)[C@@H](C)O)C(C)C)C(=O)NCC(=O)N[C@@H](CO)C(=O)N[C@@H](CC(C)C)C(=O)N[C@H](C(=O)N1CCC[C@H]1C(=O)N[C@H](C(=O)O)C(C)C)[C@@H](C)O [Pcin-CATH3] (H-LKRTRVRRARPWNCYRRGGCFSSIGSLTPV-OH; N-terminus and C-terminus assumed)
MIC ([1]; K. pneumoniae 4640, CAMHB, 1 × 10⁵ CFU/mL, 0.25 to 128 μg/mL, 37 °C 20 h, duplicate, read visually (CLSI)): >128 µg/mL
MIC ([2]; 20 h): 32 µg/mL (≈ 9.16 µM)
Suggest solvent (solubility) [3]: 1.0mg peptide soluble in 1.0ml H2O
MIC ([4]; A. baumannii 19606, CAMHB, 1 × 10⁵ CFU/mL, 0.25 to 128 μg/mL, 37 °C 20 h, duplicate, read visually (CLSI)): 64 µg/mL (≈ 18.3 µM)
MIC [5, 21]: >128 µg/mL
MIC ([6]; E. faecium 19434, CAMHB, 1 × 10⁵ CFU/mL, 0.25 to 128 μg/mL, 37 °C 20 h, duplicate, read visually (CLSI)): >128 µg/mL
MIC ([7]; E. cloacae 35549, CAMHB, 1 × 10⁵ CFU/mL, 0.25 to 128 μg/mL, 37 °C 20 h, duplicate, read visually (CLSI)): >128 µg/mL
MIC ([8]; P. aeruginosa 5519, CAMHB, 1 × 10⁵ CFU/mL, 0.25 to 128 μg/mL, 37 °C 20 h, duplicate, read visually (CLSI)): >128 µg/mL
MIC ([9]; K. pneumoniae 13883, CAMHB, 1 × 10⁵ CFU/mL, 0.25 to 128 μg/mL, 37 °C 20 h, duplicate, read visually (CLSI)): >128 µg/mL
MIC ([10]; P. aeruginosa 27853, CAMHB, 1 × 10⁵ CFU/mL, 0.25 to 128 μg/mL, 37 °C 20 h, duplicate, read visually (CLSI)): >128 µg/mL
MIC ([11]; A. baumannii 17978, CAMHB, 1 × 10⁵ CFU/mL, 0.25 to 128 μg/mL, 37 °C 20 h, duplicate, read visually (CLSI)): 64 µg/mL (≈ 18.3 µM)
MIC [12, 21]: >128 µg/mL
Bacterial MIC [13]: 64 µg/mL
Bacterial MIC ([14]; ATCC 35218, 20 h): 128 µg/mL
MIC ([14]; ATCC 35218, 20 h): >128 µg/mL
MIC ([15]; E. cloacae 13047, CAMHB, 1 × 10⁵ CFU/mL, 0.25 to 128 μg/mL, 37 °C 20 h, duplicate, read visually (CLSI)): >128 µg/mL
MIC ([16]; S. aureus 25923, CAMHB, 1 × 10⁵ CFU/mL, 0.25 to 128 μg/mL, 37 °C 20 h, duplicate, read visually (CLSI)): >128 µg/mL
MIC ([17]; E. faecium 49224, CAMHB, 1 × 10⁵ CFU/mL, 0.25 to 128 μg/mL, 37 °C 20 h, duplicate, read visually (CLSI)): >128 µg/mL
MIC [18, 21]: 16 µg/mL (≈ 4.58 µM)
Bacterial MIC [19]: 32 µg/mL

KEGCKEIKGP [TrPr-Eb20]
Bacterial MIC [1]: >128.000 µg/mL
Bacterial MIC [2]: >128.000 µg/mL
Suggest solvent (solubility) [3]: 1.0mg peptide soluble in 1.0ml H2O
Bacterial MIC [4]: >128.000 µg/mL
Bacterial MIC [5]: >128.000 µg/mL
Bacterial MIC [6]: >128.000 µg/mL
Bacterial MIC [7]: >128.000 µg/mL
Bacterial MIC [8]: >128.000 µg/mL
Bacterial MIC [9]: >128.000 µg/mL
Bacterial MIC [10]: >128.000 µg/mL
Bacterial MIC [11]: >128.000 µg/mL
Bacterial MIC [12]: >128.000 µg/mL
Bacterial MIC [13]: >128.000 µg/mL
Bacterial MIC [14, 20]: >128.000 µg/mL
Bacterial MIC [15]: >128.000 µg/mL
Bacterial MIC [16]: >128.000 µg/mL
Bacterial MIC [17]: >128.000 µg/mL
Bacterial MIC [18]: >128.000 µg/mL
Bacterial MIC [19]: >128.000 µg/mL

DVGTQGLSPLR [PrAd-Eb22]
Bacterial MIC [1]: >128.000 µg/mL
Bacterial MIC [2]: >128.000 µg/mL
Suggest solvent (solubility) [3]: 1.0mg peptide soluble in 1.0ml H2O
Bacterial MIC [4]: >128.000 µg/mL
Bacterial MIC [5]: >128.000 µg/mL
Bacterial MIC [6]: >128.000 µg/mL
Bacterial MIC [7]: >128.000 µg/mL
Bacterial MIC [8]: >128.000 µg/mL
Bacterial MIC [9]: >128.000 µg/mL
Bacterial MIC [10]: >128.000 µg/mL
Bacterial MIC [11]: >128.000 µg/mL
Bacterial MIC [12]: >128.000 µg/mL
Bacterial MIC [13]: >128.000 µg/mL
Bacterial MIC [14, 20]: >128.000 µg/mL
Bacterial MIC [15]: >128.000 µg/mL
Bacterial MIC [16]: >128.000 µg/mL
Bacterial MIC [17]: >128.000 µg/mL
Bacterial MIC [18]: >128.000 µg/mL
Bacterial MIC [19]: >128.000 µg/mL
